Laboratory results published in PubChem BioAssay (NCI).
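48-hour exposure; five concentrations; linearly interpolated endpoints. The concentration for 50% growth inhibition is given as GI50. TGI: concentration producing complete growth inhibition.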

Legend:
Experiment in all cases: NCI tumour cell line growth inhibition, 48 h
[1] = test system: UO-31 renal
[2] = test system: M14 melanoma
[3] = test system: LOX IMVI melanoma
[4] = test system: HCC-2998 colon
[5] = test system: OVCAR-5 ovarian
[6] = test system: SR leukemia
[7] = test system: RXF 393 renal
[8] = test system: NCI/ADR-RES ovarian

## C1COCCN1.C1COCCN1.N.N.[Cl-].[Pt+2]
[1]
  GI50: > 100 µM
  TGI: > 100 µM
[2]
  GI50: > 100 µM
  TGI: > 100 µM
[3]
  GI50: > 100 µM
  TGI: > 100 µM
[4]
  GI50: > 100 µM
  TGI: > 100 µM
[5]
  GI50: > 100 µM
  TGI: > 100 µM
[6]
  GI50: > 100 µM
  TGI: > 100 µM
[7]
  GI50: > 100 µM
  TGI: > 100 µM

## COc1ccc(/C=C/C=C(/C#N)C(N)=S)cc1
[1]
  GI50: 21.6 µM
  TGI: 45.2 µM
[2]
  GI50: 18.8 µM
  TGI: 42.7 µM
[3]
  GI50: 16 µM
  TGI: 37.4 µM
[5]
  GI50: 34.3 µM
  TGI: 95.8 µM
[6]
  GI50: 19.4 µM
  TGI: > 100 µM
[7]
  GI50: 14 µM
  TGI: 30.1 µM

## CC(C)(C)OC(=O)n1cc(CNC(=S)Nc2ccccc2)c2ccccc21
[1]
  GI50: 26.5 µM
  TGI: > 100 µM
[2]
  GI50: 17.7 µM
  TGI: 33.3 µM
[3]
  GI50: 11.1 µM
  TGI: 23 µM
[5]
  GI50: 16.3 µM
  TGI: 37.6 µM
[6]
  GI50: 5.07 µM
  TGI: > 100 µM
[8]
  GI50: 10.8 µM
  TGI: 22.7 µM
[7]
  GI50: 19.3 µM
  TGI: 43.2 µM

## O=C(c1ccc2ccccc2c1)c1c(C(F)(F)F)n([O-])c2cc(Cl)c(Cl)cc2[n+]1=O
[1]
  GI50: 1.51 µM
  TGI: 2.83 µM
[2]
  GI50: 1.66 µM
  TGI: 3.04 µM
[3]
  GI50: 1.17 µM
  TGI: 2.4 µM
[4]
  GI50: 1.48 µM
  TGI: 2.8 µM
[5]
  GI50: 1.65 µM
  TGI: 3.01 µM
[8]
  GI50: 1.8 µM
  TGI: 3.95 µM
[7]
  GI50: 1.6 µM
  TGI: 3.04 µM

## O=C(c1cccs1)c1c(C(F)(F)F)n([O-])c2ccccc2[n+]1=O
[1]
  GI50: 0.0775 µM
  TGI: 6.08 µM
[2]
  GI50: 0.771 µM
  TGI: 1.58 µM
[3]
  GI50: 0.448 µM
  TGI: 1.12 µM
[4]
  GI50: 0.663 µM
  TGI: 1.3 µM
[5]
  GI50: 1.04 µM
  TGI: 2.49 µM
[6]
  GI50: 2.56 µM
  TGI: 6.03 µM
[8]
  GI50: 0.677 µM
  TGI: 1.94 µM

## Cn1cc(NC(=O)c2cc(NC(=O)CCCCCCCCCCC(=O)Nc3cc(C(=O)Nc4cc(C(=O)NCCC(=N)N)n(C)c4)n(C)c3)cn2C)cc1C(=O)NCCC(=N)N
[1]
  TGI: > 100 µM
[2]
  TGI: > 100 µM
[3]
  TGI: > 100 µM
[4]
  TGI: 73.6 µM
[5]
  TGI: > 100 µM
[7]
  TGI: 77.5 µM

## CNC(=O)c1ccccc1CC1(O)c2ccccc2Oc2ccccc21
[1]
  GI50: 29.4 µM
  TGI: > 100 µM
[2]
  GI50: 15.3 µM
  TGI: 56.6 µM
[3]
  GI50: 29.1 µM
  TGI: > 100 µM
[4]
  GI50: 29 µM
  TGI: 91.3 µM
[5]
  GI50: 29.1 µM
  TGI: > 100 µM
[6]
  GI50: 6.61 µM
  TGI: 86.4 µM
[8]
  GI50: 10.1 µM
  TGI: 86.9 µM

## CSc1nc(SC)c2c(CN=[N+]=[N-])c(Br)n(Cc3ccccc3)c2n1
[1]
  TGI: > 100 µM
[2]
  TGI: > 100 µM
[3]
  TGI: > 100 µM
[4]
  TGI: > 100 µM
[5]
  TGI: > 100 µM
[6]
  TGI: > 100 µM
[8]
  TGI: > 100 µM

## O=C(/C=C/c1ccc(Cl)cc1)c1ccc(Cl)cc1Cl
[1]
  GI50: 7.62 µM
  TGI: 14.4 µM
[2]
  GI50: 10.9 µM
  TGI: 24.2 µM
[3]
  GI50: 1.15 µM
  TGI: 5.62 µM
[5]
  GI50: 9.15 µM
  TGI: 18 µM
[6]
  GI50: 2.31 µM
  TGI: 50 µM
[8]
  GI50: 0.331 µM
  TGI: 15.5 µM

## N#Cc1c(-c2cccs2)c2c(=S)[nH]c(=S)[nH]c2[nH]c1=S
[1]
  GI50: 40.6 µM
  TGI: 92.6 µM
[2]
  GI50: 57.5 µM
  TGI: > 100 µM
[3]
  GI50: 18.2 µM
  TGI: 39.8 µM
[5]
  GI50: > 100 µM
  TGI: > 100 µM
[6]
  GI50: 29.3 µM
  TGI: > 100 µM
[8]
  GI50: 62 µM
  TGI: 99.3 µM
[7]
  GI50: 37.1 µM
  TGI: > 100 µM

## N#CC(=C1SCS1)[N+](=O)[O-]
[1]
  GI50: 6.04 µM
  TGI: 24.3 µM
[3]
  GI50: 0.567 µM
  TGI: 14.7 µM
[4]
  GI50: 4.26 µM
  TGI: 16.6 µM
[5]
  GI50: 4.12 µM
  TGI: 19.9 µM
[6]
  GI50: 0.568 µM
  TGI: 4.31 µM
[8]
  GI50: 3.05 µM
  TGI: 20 µM
[7]
  GI50: 1.63 µM
  TGI: 3.83 µM

## N/C(CC(=O)Nc1cc(C(F)(F)F)ccc1Cl)=N\O
[1]
  TGI: > 100 µM
[2]
  TGI: > 100 µM
[3]
  TGI: > 100 µM
[5]
  TGI: > 100 µM
[6]
  TGI: > 100 µM
[8]
  TGI: > 100 µM
[7]
  TGI: > 100 µM

## CCC(C)C1NC(=O)c2nc(oc2-c2ccccc2)-c2csc(n2)-c2csc(n2)-c2nc(oc2C)-c2coc(n2)CNC(=O)C(C(C)CC)NC1=O (stereo not drawn)
[1]
  GI50: 0.0515 µM
  TGI: 0.185 µM
[4]
  GI50: 0.0543 µM
  TGI: 0.249 µM
[5]
  GI50: 0.0515 µM
  TGI: 0.189 µM
[6]
  GI50: 0.0327 µM
  TGI: 0.212 µM
[8]
  GI50: 0.278 µM
  TGI: 2.38 µM
[7]
  GI50: 0.0334 µM
  TGI: 0.166 µM

## COc1ccc(-c2cc(-c3cc(Cl)ccc3Cl)nc3[nH]c(-c4cc(F)c(Cl)cc4Cl)cc(=O)c23)cc1
[1]
  GI50: 59.5 µM
  TGI: > 100 µM
[2]
  GI50: 13.5 µM
  TGI: 35.8 µM
[3]
  GI50: 15.3 µM
  TGI: 34.4 µM
[4]
  GI50: 15.1 µM
  TGI: 32.3 µM
[5]
  GI50: 22.2 µM
  TGI: 89.2 µM
[8]
  GI50: 4.95 µM
  TGI: 23.2 µM
[7]
  GI50: 17.4 µM
  TGI: > 100 µM
